System: HIV-1 vectors bearing the S230N IN mutant
Test: Single-round HIV-1 replication antiviral assay, S230N IN mutant
Type: cell-based
Conditions: for EC50: Human immunodeficiency virus 1, HOS, 48 h, read-out: EC50, antiviral potency, S230N IN mutant
From the text: To further evaluate the antiviral activities of select compounds, we determined their EC50 values against the IN mutant S230N, which has been selected in vitro against an early Merck INSTI L810,830, a prototype for naphthyridine analogs.
Human embryonic kidney cell culture cell line 293 was acquired from the American Type Culture Collection (ATCC). The human osteosarcoma cell line, HOS, was obtained from Dr. Richard Schwartz (Michigan State University, East Lansing, MI, USA) and grown in Dulbecco’s modified Eagle’s medium (Invitrogen, Carlsbad, CA, USA) supplemented with 5% (v/v) fetal bovine serum, 5% newborn calf serum, and penicillin (50 units/mL) plus streptomycin (50 µg/mL; Quality Biological, Gaithersburg, MD, USA). The transfection vector, pNLNgoMIVR-ΔLUC was made from pNLNgoMIVR-ΔEnv.HSA by removing the HSA reporter gene and replacing it with a luciferase reporter gene between the NotI and XhoI restriction sites. To produce the new IN mutant S230N used in this study, the IN open reading frame was removed from pNLNgoMIVR-ΔENV.LUC by digestion with KpnI and SalI, and the resulting fragment was inserted between the KpnI and SalI sites of pBluescript KS+. Using that construct as the wild-type template, we prepared the following HIV-1 IN mutant S230N using the QuikChange II XL site-directed mutagenesis kit (Agilent Technologies, Santa Clara, CA, USA) protocol. The following sense oligonucleotides were used with matching cognate antisense oligonucleotides (not shown) (Integrated DNA Technologies, Coralville, IA, USA) in the mutagenesis: S230N 5′-[…]-3′. The DNA sequence of the IN mutant S230N construct was verified independently by DNA sequence determination. The mutated IN coding sequences from pBluescript KS+ were then subcloned into pNLNgoMIVR-ΔEnv.LUC (between the KpnI and SalI sites) to produce mutant HIV-1 constructs, which were also checked by DNA sequencing. […]. On the day prior to transfection, 293 cells were plated on 100 mm diameter dishes at a density of 1.5 × 10^6 cells per plate. Next, 293 cells were transfected with 16 µg of pNLNgoMIVR^-ΔLUC and 4 µg of pHCMV-g (obtained from Dr. Jane Burns, University of California, San Diego) using the calcium phosphate method. At approximately 6 h after the calcium phosphate precipitate was added, 293 cells were washed twice with phosphate-buffered saline (PBS) and incubated with fresh media for 48 h. The virus-containing supernatants were then harvested, clarified by low-speed centrifugation, filtrated, and diluted for preparation in antiviral infection assays. On the day prior to the screen, HOS cells were seeded in a 96-well luminescence cell culture plate at a density of 4000 cells in 100 µL per well. On the day of the screen for cellular cytotoxicity determination, cells were treated with compounds from a concentration range of 250 µM to 0.05 µM and then incubated at 37 °C for 48 h. On the day of the screen for antiviral activity infection assays, cells were treated with compounds from a concentration range of 5 µM to 0.0001 µM using 11 serial dilutions and then incubated at 37 °C for 3 h. After compound incorporation and activation in the cell, 100 µL of virus-stock (WT or mutant) diluted to achieve a luciferase signal between 0.2 and 1.5 Relative Luciferase Units (RLUs) was added to each well and further incubated at 37 °C for 48 h. Cellular cytotoxicity was measured by using the ATP Lite Luminescence detection system and monitored by adding 50 µL of cell lysis buffer from the Luminescence ATP detection assay to each well followed by mixing at 700 rpm at room temperature for 5 min using a compact thermomixer. […]

SMILES	EC50 [nM]	Ratio of the antiviral potencies after and before hydrogenation (S230N) (EC50 of saturated 7 over EC50 of unsaturated 6, S230N IN)
O=C(NCc1ccc(F)cc1F)c1cn2ccn(CCCCCO)c(=O)c2c(O)c1=O [Compound 6d, N-(2,4-Difluorobenzyl)-9-hydroxy-2-(5-hydroxypentyl)-1,8-dioxo-1,8-dihydro-2H-pyrido [1,2-a]pyrazine-7-carboxamide]	15.4	–
O=C(NCc1ccc(F)cc1F)c1cn2c(c(O)c1=O)C(=O)N(CCCCCCO)CC2 [Compound 7c, N-(2,4-Difluorobenzyl)-9-hydroxy-2-(6-hydroxyhexyl)-1,8-dioxo-1,3,4,8-tetrahydro-2H-pyrido [1,2-a]pyrazine-7-carboxamide]	38	–
O=C(NCc1ccc(F)cc1F)c1cn2ccn(CCCCO)c(=O)c2c(O)c1=O [Compound 6e, N-(2,4-Difluorobenzyl)-9-hydroxy-2-(4-hydroxybutyl)-1,8-dioxo-1,8-dihydro-2H-pyrido [1,2-a]pyrazine-7-carboxamide]	30.7	–
O=C(NCc1ccc(F)cc1F)c1cn2c(c(O)c1=O)C(=O)N(CCCCO)CC2 [Compound 7e, N-(2,4-Difluorobenzyl)-9-hydroxy-2-(4-hydroxybutyl)-1,8-dioxo-1,3,4,8-tetrahydro-2H-pyrido [1,2-a]pyrazine-7-carboxamide]	101	3.28
O=C(NCc1ccc(F)cc1F)c1cn2ccn(CCCCCCO)c(=O)c2c(O)c1=O [Compound 6c, N-(2,4-Difluorobenzyl)-9-hydroxy-2-(6-hydroxyhexyl)-1,8-dioxo-1,8-dihydro-2H-pyrido [1,2-a]pyrazine-7-carboxamide]	9.3	–

From paper PMC9919513, “A Practical Approach to Bicyclic Carbamoyl Pyridones with Application to the Synthesis of HIV-1 Integrase Strand Transfer Inhibitors” (Molecules, 2023)
